Where two headings read alike, the source gives them in different places.
How the values were obtained:
[1] = target: T1, recombinant GST-FXR fusion protein (Homo sapiens, UniProt Q96RI1); assay: FXR activity at the molecular level (AlphaScreen); type: biochemical
T1 sequence (Q96RI1 1-486): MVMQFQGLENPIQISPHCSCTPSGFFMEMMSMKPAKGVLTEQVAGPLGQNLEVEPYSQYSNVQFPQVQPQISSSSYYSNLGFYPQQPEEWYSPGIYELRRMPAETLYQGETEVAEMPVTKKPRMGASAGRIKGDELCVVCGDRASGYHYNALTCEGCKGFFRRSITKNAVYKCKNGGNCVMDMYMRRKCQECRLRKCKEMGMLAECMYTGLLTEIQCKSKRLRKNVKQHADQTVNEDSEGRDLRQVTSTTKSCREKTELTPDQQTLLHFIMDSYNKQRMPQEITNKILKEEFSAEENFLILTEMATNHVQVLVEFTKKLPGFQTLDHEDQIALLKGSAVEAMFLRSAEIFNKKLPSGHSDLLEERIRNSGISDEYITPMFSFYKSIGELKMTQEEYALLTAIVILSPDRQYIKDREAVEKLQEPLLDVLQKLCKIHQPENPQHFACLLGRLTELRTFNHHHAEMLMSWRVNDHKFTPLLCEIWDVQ
Method: Test Method for FXR Activity at the Molecular Level
FXR activity was determined using recombinant GST-FXR fusion protein by AlphaScreen detection reagent from PerkinElmer. The reaction in this method was carried out in a 384-well plate, and the total reaction volume was 15 μL. A mixture of protein, agonist, co-regulatory factor, AlphaScreen® acceptor beads and AlphaScreen® donor beads was reacted in a buffer containing Tris-HCl 50 mM (pH7.4), 50 mM NaCl, BSA 0.1%, and 1 mM DTT. The FXR activity was reflected by the fluorescence signal intensity at 570 nm wavelength detected by the Envision fluorescence detector.

[2] = target: T2, FXR receptor (Homo sapiens, UniProt Q96RI1); assay: FXR activity at the cellular level (FXRE luciferase reporter in 293T cells); type: cell-based
T2 construct: expressed in transfected cells; host or cells: 293T cells
T2 sequence (Q96RI1 1-486): T1 sequence (Q96RI1 1-486)
Method: The cells were cultured for 24 hours to ensure plasmid expression. Then the FXR receptor agonists to be tested were added and incubated for 18 hours. The fluorescence intensity was detected using a luciferase kit (steady-Glo Luciferase Assay system) to reflect the compound's activation efficiency on the FXR receptor.

[3] = AlphaScreen, GST-FXR, read-out: FXR activity at the molecular level EC50
[4] = 293T cells, luciferase reporter
[5] = 293T cells, luciferase reporter, read-out: FXR activity at the celluar level EC50

In the case of `O=c1[nH]c(-c2ccc(N3[C@@H]4CC[C@H]3C[C@@H](OCc3c(-c5c(Cl)cccc5Cl)noc3C3CC3)C4)cc2)no1` [Example 1], the EC50 [1, 3] is reported as < 10 nM, the “difference of activity on FXR at molecular level, endo-compound vs exo-compound” value ([1]; endo- versus exo-compound) is reported as “more than 100 times” and the “FXR activity at the celluar level Activity relative to OCA (%) 10 μM” value [2, 4] is reported as 88%. For the same compound, the EC50 [2, 5] was 1 to 10 nM.

With `O=c1[nH]c(-c2ccc(N3[C@@H]4CC[C@H]3C[C@H](OCc3c(-c5c(Cl)cccc5Cl)noc3C3CC3)C4)cc2)no1` [Example 2] the EC50 [1, 3] was > 1000 nM, the “FXR activity at the celluar level Activity relative to OCA (%) 10 μM” value [2, 4] was 73% and the EC50 [2, 5] was > 100 nM.

`O=c1[nH]c(-c2ccc(N3[C@@H]4CC[C@H]3C[C@@H](OCc3c(-c5c(F)cccc5F)noc3C3CC3)C4)nc2)no1` [Example 3] was tested, and the EC50 [1, 3] was 10 to 100 nM, the “FXR activity at the celluar level Activity relative to OCA (%) 10 μM” value [2, 4] was 116% and the EC50 [2, 5] was 0.1 to 1 nM.

For `O=c1[nH]c(-c2ccc(N3[C@@H]4CC[C@H]3C[C@@H](OCc3c(-c5c(Cl)cccc5Cl)noc3C3CC3)C4)nc2)no1` [Example 4], the EC50 [1, 3] was < 10 nM, the “FXR activity at the celluar level Activity relative to OCA (%) 10 μM” value [2, 4] was 103% and the EC50 [2, 5] was < 0.1 nM.

With `O=c1[nH]c(-c2ccc(N3[C@@H]4CC[C@H]3C[C@@H](OCc3c(-c5ccccc5C(F)(F)F)noc3C3CC3)C4)nc2)no1` [Example 5] the EC50 [1, 3] was 10 to 100 nM, the “FXR activity at the celluar level Activity relative to OCA (%) 10 μM” value [2, 4] was 141% and the EC50 [2, 5] was 0.1 to 1 nM.

For `O=c1[nH]c(-c2ccc(N3[C@@H]4CC[C@H]3C[C@@H](OCc3c(-c5ccccc5OC(F)(F)F)noc3C3CC3)C4)nc2)no1` [Example 6], the EC50 [1, 3] was 10 to 100 nM, the “FXR activity at the celluar level Activity relative to OCA (%) 10 μM” value [2, 4] was 122% and the EC50 [2, 5] was 0.1 to 1 nM.

With `O=c1[nH]c(-c2ccc(N3[C@@H]4CC[C@H]3C[C@@H](OCc3c(-c5c(F)cccc5F)noc3C3CC3)C4)cc2F)no1` [Example 7] the EC50 [1] was 10 to 100 nM, the EC50 [2] was 0.1 to 1 nM and the “FXR activity at the celluar level Activity relative to OCA (%) 10 μM” value [2, 4] was 117%.

`O=c1[nH]c(-c2ccc(N3[C@@H]4CC[C@H]3C[C@@H](OCc3c(-c5c(Cl)cccc5Cl)noc3C3CC3)C4)cc2F)no1` [Example 8] was tested, and the EC50 [1, 3] was < 10 nM, the EC50 [2] was < 0.1 nM and the “FXR activity at the celluar level Activity relative to OCA (%) 10 μM” value [2, 4] was 102%.

`O=c1[nH]c(-c2ccc(N3[C@@H]4CC[C@H]3C[C@@H](OCc3c(-c5ccccc5C(F)(F)F)noc3C3CC3)C4)cc2F)no1` [Example 9] was tested, and the EC50 [1, 3] was 10 to 100 nM, the “FXR activity at the celluar level Activity relative to OCA (%) 10 μM” value [2, 4] was 102% and the EC50 [2, 5] was 0.1 to 1 nM.

In the case of `O=c1[nH]c(-c2ccc(N3[C@@H]4CC[C@H]3C[C@@H](OCc3c(-c5ccccc5OC(F)(F)F)noc3C3CC3)C4)cc2F)no1` [Example 10], the EC50 [1, 3] is reported as 10 to 100 nM, the “FXR activity at the celluar level Activity relative to OCA (%) 10 μM” value [2, 4] is reported as 102% and the EC50 [2, 5] is reported as 0.1 to 1 nM.

In the case of `O=c1[nH]c(-c2ccc(N3[C@@H]4CC[C@H]3C[C@@H](OCc3c(-c5ccccc5OC(F)F)noc3C3CC3)C4)nc2)no1` [Example 11], the EC50 [1, 3] is reported as 10 to 100 nM, the “FXR activity at the celluar level Activity relative to OCA (%) 10 μM” value [2, 4] is reported as 108% and the EC50 [2, 5] is reported as 1 to 10 nM.

With `Cc1ccccc1-c1noc(C2CC2)c1CO[C@H]1C[C@H]2CC[C@@H](C1)N2c1ccc(-c2noc(=O)[nH]2)cn1` [Example 12] the EC50 [1, 3] was 10 to 100 nM, the “FXR activity at the celluar level Activity relative to OCA (%) 10 μM” value [2, 4] was 105% and the EC50 [2, 5] was 1 to 10 nM.

`O=c1[nH]c(-c2ccc(N3[C@@H]4CC[C@H]3C[C@@H](OCc3c(-c5ccccc5OC(F)F)noc3C3CC3)C4)cc2F)no1` [Example 13] was tested, and the EC50 [1, 3] was 10 to 100 nM, the “FXR activity at the celluar level Activity relative to OCA (%) 10 μM” value [2, 4] was 108% and the EC50 [2, 5] was 0.1 to 1 nM.

In the case of `Cc1ccccc1-c1noc(C2CC2)c1CO[C@H]1C[C@H]2CC[C@@H](C1)N2c1ccc(-c2noc(=O)[nH]2)c(F)c1` [Example 14], the EC50 [1, 3] is reported as 10 to 100 nM, the “FXR activity at the celluar level Activity relative to OCA (%) 10 μM” value [2, 4] is reported as 106% and the EC50 [2, 5] is reported as 0.1 to 1 nM.
